Measurements reported in US20240189254A1, “Xylitol Topical Ocular Solution” (GSX Pharma LLC, priority 2022, published 2024).
Like-named read-outs stand apart in the source and are kept apart here.

Assays:
S. pneumoniae [1] = conditions: glucose in the growth medium, cited from earlier work
[2] = limited human studies of topical xylitol; assay type: in vivo; conditions: topical 4% to 7% xylitol, 2-5 times per day
S. mutans [3] = conditions: in spite of the presence of glucose or sucrose; cited from earlier work
[4] = test system: Streptococcus pneumoniae strains; conditions: xylitol 0.5 to 5%; cited from earlier work
H. influenzae [5] = conditions: 5% xylitol; cited from earlier work
S. mutans [6] = conditions: cited from earlier work
[7] = test system: beta-haemolytic streptococci; conditions: 5% xylitol; cited from earlier work
S. pneumoniae [8] = conditions: cited from earlier work
H. influenzae [9] = conditions: cited from earlier work
SARS-CoV-2 = conditions: in vitro, within minutes of application, lasting for hours; cited from earlier work
[10] = 8.4-10 g daily in five doses, 2-3 months follow-up, cited from earlier work
Streptococcus salivarius = conditions: cited from earlier work
[11] = test system: Acanthamoeba species cysts; assay: PMN testing of Acanthamoeba species, xylitol with PHMB; assay type: cell-based; conditions: xylitol 6% to 20%
From the text: In PMN testing of a number of Acanthamoeba species, Xylitol in concentrations ranging from 6% to 20% has appeared to potentiate the acanthamoeba cysticidal effects of PHMB. In order for a disinfectant like PHMB to be cysticidal, it must gain access to the trophozoite internalized within the cyst. The most obvious route is via the ostioles or the pores in the double cell wall of the cyst that connect the outer exocyst and inner endocyst, thus allowing the internalized amoeba to communicate with its outside environment. It is believed that the mucopolysaccharides of the ostioles are altered by xylitol that enhance the binding by PHMB to allow […] penetration of the disinfectant.

Streptococcus sanguis = conditions: cited from earlier work
[12] = in vivo; cited from earlier work
M. catarrhalis = conditions: 5% xylitol; cited from earlier work
Acanthamoeba cysts = conditions: 48 h of exposure; cited from earlier work
[13] = test system: Acanthamoeba trophozoites; conditions: 48 h of exposure; cited from earlier work

Compound: OC[C@@H](O)[C@H](O)[C@@H](O)CO [Xylitol]
- inhibition of pneumococcal growth (S. pneumoniae [1]; 1% xylitol): 39%
- inhibition of pneumococcal growth (S. pneumoniae [1]; 5% xylitol solution): 72%
- corneal SPK [2]: reduce
- symptoms and inflammation (imaging of retro-palpebral and ocular surface mucosa, Meibomian gland obstruction) [2]: improve
- growth of S. mutans (S. mutans [3]): markedly reduced
- adherence on epithelial cells [4]: did not diminish significantly
- growth of H. influenza (H. influenzae [5]): minimally affected
- concentration capable of reducing adherence of S. mutans (S. mutans [6]): 6%
- growth of beta-haemolytic streptococci [7]: more modestly impaired
- concentration sufficient to reduce adherence of S. pneumoniae to epithelial cells (S. pneumoniae [8]): 5%
- concentration sufficient to reduce adherence of H. influenzae to epithelial cells (H. influenzae [9]): 5%
- reduction of virion concentrations (SARS-CoV-2): multiple log MAR reduction
- reduction of acute otitis media ([10]; chewing gum): approximately 40%
- reduction of acute otitis media ([10]; oral xylitol syrup): approximately 30%
- effect on growth of Streptococcus salivarius (Streptococcus salivarius): modest by comparison, but still significant
- effect on acanthamoeba cysticidal effects of PHMB [11]: potentiate
- effect on growth of Streptococcus sanguis (Streptococcus sanguis): modest by comparison, but still significant
- time until xylitol disappeared from the saliva [12]: ≤ 15 min
- growth of M. catarrhalis (M. catarrhalis): minimally affected

Compound: Polyhexamethylene Biguanide [PHMB]
- minimum cysticidal concentration (MCC) (Acanthamoeba cysts): 3 g/mL
- minimum trophozoite amoebicidal concentration (MTAC) [13]: 1 g/mL
